# In patent US10160747B2, “Compounds and methods for kinase modulation, and indications therefor” (Plexxikon Inc., priority 2016, dated 2018):
# pIC50: −log10 of the molar value.
# Target: CSF1R (Homo sapiens, UniProt P07333)
# Assay: CSF1R 100 ATP 8 pt kinase assay (Table 6)
# Format: biochemical
# Details: not given
# Text: The following Table 6 provides data indicating FLT3 ITD, D835Y and F691L; c-KIT and CSF1R biochemical and/or cell inhibitory activity for exemplary compounds as described herein.
# CSF1R, sequence (P07333 20-972, species assumed): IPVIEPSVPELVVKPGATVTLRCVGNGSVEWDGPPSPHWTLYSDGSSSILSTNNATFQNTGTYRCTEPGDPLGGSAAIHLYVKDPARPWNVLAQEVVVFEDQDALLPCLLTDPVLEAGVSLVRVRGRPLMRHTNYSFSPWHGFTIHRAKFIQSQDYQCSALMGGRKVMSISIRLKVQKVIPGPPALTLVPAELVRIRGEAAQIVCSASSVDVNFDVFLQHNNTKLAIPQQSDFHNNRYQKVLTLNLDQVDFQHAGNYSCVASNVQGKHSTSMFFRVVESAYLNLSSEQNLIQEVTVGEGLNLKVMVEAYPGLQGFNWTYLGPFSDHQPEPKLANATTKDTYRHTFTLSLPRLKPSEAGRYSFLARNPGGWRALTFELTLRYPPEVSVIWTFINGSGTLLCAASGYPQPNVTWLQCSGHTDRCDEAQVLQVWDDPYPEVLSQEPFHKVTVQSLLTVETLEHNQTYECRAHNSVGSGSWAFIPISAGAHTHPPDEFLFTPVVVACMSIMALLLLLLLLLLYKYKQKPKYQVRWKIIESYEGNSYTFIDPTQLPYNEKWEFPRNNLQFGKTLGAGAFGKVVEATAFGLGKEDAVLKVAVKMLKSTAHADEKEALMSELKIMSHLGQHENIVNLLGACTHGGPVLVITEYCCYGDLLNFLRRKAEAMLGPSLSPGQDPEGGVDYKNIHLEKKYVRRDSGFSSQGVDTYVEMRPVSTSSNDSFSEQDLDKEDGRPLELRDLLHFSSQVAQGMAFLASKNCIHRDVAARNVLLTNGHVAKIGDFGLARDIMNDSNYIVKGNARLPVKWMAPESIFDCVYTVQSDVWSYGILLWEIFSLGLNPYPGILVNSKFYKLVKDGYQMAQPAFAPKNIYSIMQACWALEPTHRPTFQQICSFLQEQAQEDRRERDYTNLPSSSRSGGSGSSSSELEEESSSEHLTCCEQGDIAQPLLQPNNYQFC
row,pIC50,Structure (SMILES)
1,5.00 to 10.00,"Cc1n[nH]c2ncc(-c3ccc(CC(=O)Nc4cncc(C(F)(F)F)c4)cc3F)cc12 [Compound P-0177, 2-[3-fluoro-4-(3-methyl-1H-pyrazolo[3,4-b]pyridin-5-yl)phenyl]-N-[5-(trifluoromethyl)-3-pyridyl]acetamide]"
2,5.00 to 10.00,"Cc1n[nH]c2ncc(-c3cc(F)c(CC(=O)Nc4cncc(C(F)(F)F)c4)cc3F)cc12 [Compound P-0173, 2-[2,5-difluoro-4-(3-methyl-1H-pyrazolo[3,4-b]pyridin-5-yl)phenyl]-N-[5-(trifluoromethyl)-3-pyridyl]acetamide]"
3,5.00 to 10.00,"COc1ncc(NC(=O)Cc2ccc(-c3cnc4[nH]nc(C)c4c3)c(F)c2)cc1C(F)(F)F [Compound P-0174, 2-[3-fluoro-4-(3-methyl-1H-pyrazolo[3,4-b]pyridin-5-yl)phenyl]-N-[6-methoxy-5-(trifluoromethyl)-3-pyridyl]acetamide]"
4,5.00 to 10.00,"Cc1ncc(NC(=O)Cc2cc(F)c(-c3cnc4[nH]nc(C)c4c3)cc2F)cc1C(F)(F)F [Compound P-0175, 2-(2,5-difluoro-4-(3-methyl-1H-pyrazolo[3,4-b]pyridin-5-yl)phenyl)-N-(6-methyl-5-(trifluoromethyl)pyridin-3-yl)acetamide]"

# Target: T1, c-KIT (Homo sapiens, UniProt P10721)
# T1 construct: purchased Millipore 14-559K
# T1 sequence (P10721 26-976): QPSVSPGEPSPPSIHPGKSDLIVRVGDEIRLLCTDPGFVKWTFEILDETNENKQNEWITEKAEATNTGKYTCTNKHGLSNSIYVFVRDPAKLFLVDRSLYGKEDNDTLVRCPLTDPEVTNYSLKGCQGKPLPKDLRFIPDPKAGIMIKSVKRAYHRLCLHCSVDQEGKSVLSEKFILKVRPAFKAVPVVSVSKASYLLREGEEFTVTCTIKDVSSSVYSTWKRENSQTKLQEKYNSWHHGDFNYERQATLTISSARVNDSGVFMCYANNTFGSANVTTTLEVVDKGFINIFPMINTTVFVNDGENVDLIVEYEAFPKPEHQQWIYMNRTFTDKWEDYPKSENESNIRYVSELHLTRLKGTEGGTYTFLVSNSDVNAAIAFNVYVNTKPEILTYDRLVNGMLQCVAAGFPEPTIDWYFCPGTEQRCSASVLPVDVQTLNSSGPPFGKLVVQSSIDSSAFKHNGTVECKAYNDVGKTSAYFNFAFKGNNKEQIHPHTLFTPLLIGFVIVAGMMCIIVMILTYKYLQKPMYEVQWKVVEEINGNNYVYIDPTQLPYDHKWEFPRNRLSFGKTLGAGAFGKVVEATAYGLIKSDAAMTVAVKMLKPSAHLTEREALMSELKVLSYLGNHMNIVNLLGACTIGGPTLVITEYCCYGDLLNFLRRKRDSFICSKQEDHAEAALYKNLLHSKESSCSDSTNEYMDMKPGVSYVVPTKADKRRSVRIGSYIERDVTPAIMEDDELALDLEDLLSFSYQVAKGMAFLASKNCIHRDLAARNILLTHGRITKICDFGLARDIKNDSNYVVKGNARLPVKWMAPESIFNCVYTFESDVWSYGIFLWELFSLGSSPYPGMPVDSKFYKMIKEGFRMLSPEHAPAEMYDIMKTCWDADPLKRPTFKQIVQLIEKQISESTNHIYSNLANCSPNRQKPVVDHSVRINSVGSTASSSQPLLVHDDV
# Assay: c-KIT recombinant enzyme kinase assay (AlphaScreen)
# Format: biochemical
# Details: 100 ATP, 8 pt
# Summary of the method: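 Enzyme plus biotinylated poly(Glu4-Tyr) substrate (30 nM) mixed with compound, then ATP added. Donor beads went in for 20 min at room temperature, then PY20 acceptor beads for 60 min. AlphaScreen read; ATP was 10 μM for FLT3-ITD/D835Y and 100 μM for c-KIT.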
row,Structure (SMILES),pIC50
1,"Cc1n[nH]c2ncc(-c3ccc(CC(=O)Nc4cncc(C(F)(F)F)c4)cc3F)cc12 [Compound P-0177, 2-[3-fluoro-4-(3-methyl-1H-pyrazolo[3,4-b]pyridin-5-yl)phenyl]-N-[5-(trifluoromethyl)-3-pyridyl]acetamide]",5.00 to 10.00
2,"Cc1n[nH]c2ncc(-c3cc(F)c(CC(=O)Nc4cncc(C(F)(F)F)c4)cc3F)cc12 [Compound P-0173, 2-[2,5-difluoro-4-(3-methyl-1H-pyrazolo[3,4-b]pyridin-5-yl)phenyl]-N-[5-(trifluoromethyl)-3-pyridyl]acetamide]",5.00 to 10.00
3,"COc1ncc(NC(=O)Cc2ccc(-c3cnc4[nH]nc(C)c4c3)c(F)c2)cc1C(F)(F)F [Compound P-0174, 2-[3-fluoro-4-(3-methyl-1H-pyrazolo[3,4-b]pyridin-5-yl)phenyl]-N-[6-methoxy-5-(trifluoromethyl)-3-pyridyl]acetamide]",5.00 to 10.00
4,"Cn1cc(Nc2ncc(-c3ccc(CC(=O)NCc4ncccc4C(F)(F)F)cc3)cn2)cn1 [Compound P-0159, 2-[4-[2-[(1-methylpyrazol-4-yl)amino]pyrimidin-5-yl]phenyl]-N-[[3-(trifluoromethyl)-2-pyridyl]methyl]acetamide]",5.00 to 10.00
5,"CCn1cc(Nc2ncc(-c3ccc(CC(=O)Nc4cnc(Cl)c(C(F)(F)F)c4)cc3)cn2)cn1 [Compound P-0165, N-[6-chloro-5-(trifluoromethyl)-3-pyridyl]-2-[4-[2-[(1-ethylpyrazol-4-yl)amino]pyrimidin-5-yl]phenyl]acetamide]",5.00 to 10.00
6,"COc1ncc(NC(=O)Cc2ccc(-c3cnc(Nc4cn(C)cn4)nc3)cc2F)cc1C(F)(F)F [Compound P-0101, 2-[2-fluoro-4-[2-[(1-methylimidazol-4-yl)amino]pyrimidin-5-yl]phenyl]-N-[6-methoxy-5-(trifluoromethyl)-3-pyridyl]acetamide]",5.00 to 10.00
7,"O=C(Cc1ccc(-c2cnc3[nH]c(-c4ccc(N5CCOCC5)nc4)cc3c2)c(F)c1)Nc1cncc(C(F)(F)F)c1 [Compound P-0198, 2-[3-fluoro-4-[2-(6-morpholino-3-pyridyl)-1H-pyrrolo[2,3-b]pyridin-5-yl]phenyl]-N-[5-(trifluoromethyl)-3-pyridyl]acetamide]",5.00 to 10.00
8,"Cc1ncc(NC(=O)Cc2cc(F)c(-c3cnc4[nH]nc(C)c4c3)cc2F)cc1C(F)(F)F [Compound P-0175, 2-(2,5-difluoro-4-(3-methyl-1H-pyrazolo[3,4-b]pyridin-5-yl)phenyl)-N-(6-methyl-5-(trifluoromethyl)pyridin-3-yl)acetamide]",5.00 to 10.00
9,"COc1ncc(NC(=O)Cc2cc(F)c(-c3cnc4[nH]nc(C)c4c3)cc2F)cc1C(F)(F)F [Compound P-0176, 2-[2,5-difluoro-4-(3-methyl-1H-pyrazolo[3,4-b]pyridin-5-yl)phenyl]-N-[6-methoxy-5-(trifluoromethyl)-3-pyridyl]acetamide]",5.00 to 10.00

# Other lines, results leading:
row,pIC50,Structure (SMILES)
1,5.00 to 10.00,"Cn1cnc(Nc2ncc(-c3ccc(CC(=O)Nc4cc(C(C)(F)F)ccn4)c(F)c3)cn2)c1 [Compound P-0102, N-[4-(1,1-difluoroethyl)-2-pyridyl]-2-[2-fluoro-4-[2-[(1-methylimidazol-4-yl)amino]pyrimidin-5-yl]phenyl]acetamide]"
2,5.00 to 10.00,"Cn1cc(Nc2ncc(-c3ccc(CC(=O)Nc4ccnc(C5CC5)c4)c(F)c3)cn2)cn1 [Compound P-0098, N-(2-cyclopropyl-4-pyridyl)-2-[2-fluoro-4-[2-[(1-methylpyrazol-4-yl)amino]pyrimidin-5-yl]phenyl]acetamide]"
3,5.00 to 10.00,"CCc1cncc(NC(=O)Cc2ccc(-c3cnc(Nc4cnn(C)c4)nc3)cc2F)c1 [Compound P-0111, N-(5-ethyl-3-pyridyl)-2-[2-fluoro-4-[2-[(1-methylpyrazol-4-yl)amino]pyrimidin-5-yl]phenyl]acetamide]"
4,5.00 to 10.00,"Cc1ncc(NC(=O)Cc2ccc(-c3cnc(Nc4cnn(C)c4)nc3)cc2F)cc1C(F)(F)F [Compound P-0091, 2-[2-fluoro-4-[2-[(1-methylpyrazol-4-yl)amino]pyrimidin-5-yl]phenyl]-N-[6-methyl-5-(trifluoromethyl)-3-pyridyl]acetamide]"
5,5.00 to 10.00,"Cn1cc(Nc2ncc(-c3ccc(CC(=O)Nc4cccc(C(F)(F)F)c4)cc3)cn2)cn1 [Compound P-0141, 2-[4-[2-[(1-methylpyrazol-4-yl)amino]pyrimidin-5-yl]phenyl]-N-[3-(trifluoromethyl)phenyl]acetamide]"
6,5.00 to 10.00,"Cn1cc(Nc2ncc(-c3ccc(CC(=O)Nc4cnc(F)c(C(C)(F)F)c4)cc3)cn2)cn1 [Compound P-0104, N-[5-(1,1-difluoroethyl)-6-fluoro-3-pyridyl]-2-[4-[2-[(1-methylpyrazol-4-yl)amino]pyrimidin-5-yl]phenyl]acetamide]"
7,5.00 to 10.00,"Cn1cc(Nc2ncc(-c3ccc(CC(=O)Nc4cccc(C(C)(C)C#N)c4)cc3)cn2)cn1 [Compound P-0158, N-[3-(1-cyano-1-methyl-ethyl)phenyl]-2-[4-[2-[(1-methylpyrazol-4-yl)amino]pyrimidin-5-yl]phenyl]acetamide]"
8,5.00 to 10.00,"COc1cc(NC(=O)Cc2ccc(-c3cnc(Nc4cnn(C)c4)nc3)cc2)ccn1 [Compound P-0153, N-(2-methoxy-4-pyridyl)-2-[4-[2-[(1-methylpyrazol-4-yl)amino]pyrimidin-5-yl]phenyl]acetamide]"
9,5.00 to 10.00,"Cn1cc(Nc2ncc(-c3ccc(CC(=O)Nc4ccc(C(F)(F)F)cn4)cc3)cn2)cn1 [Compound P-0109, 2-[4-[2-[(1-methylpyrazol-4-yl)amino]pyrimidin-5-yl]phenyl]-N-[5-(trifluoromethyl)-2-pyridyl]acetamide]"
10,5.00 to 10.00,"Cn1cc(Nc2ncc(-c3ccc(CC(=O)Nc4cccc(OC(F)(F)F)c4)cc3)cn2)cn1 [Compound P-0157, 2-[4-[2-[(1-methylpyrazol-4-yl)amino]pyrimidin-5-yl]phenyl]-N-[3-(trifluoromethoxy)phenyl]acetamide]"
11,5.00 to 10.00,"Cn1cnc(Nc2ncc(-c3ccc(CC(=O)Nc4cnc(Cl)c(C(F)(F)F)c4)c(F)c3)cn2)c1 [Compound P-0100, N-[6-chloro-5-(trifluoromethyl)-3-pyridyl]-2-[2-fluoro-4-[2-[(1-methylimidazol-4-yl)amino]pyrimidin-5-yl]phenyl]acetamide]"
